“And” between values parts separate entries of the source, which are not always exact repeats. Identical values can stand only once. Residues, ends and D or L forms follow the SMILES beside them.

The test system of one data set is Intestinal Smooth Muscle. In words: Calcium-induced contraction of intestinal smooth muscle specimens. Type of data set: cell-based, guinea pigs. Particulars: 20 mM CaCl2. Here is the method:
GE and VT served as test substances in this experiment. GE was tested at concentrations of 10^-6 g/ml and 10^-5 g/ml (4.9×10^-6 M and 4.9×10^-5 M, respectively), and VT was tested at concentrations 10^-6 g/ml and 10^-5 g/ml (4.58×10^-6 and 4.58×10^-5 M, respectively).
Small intestinal SMS samples from ten guinea pigs were surgically isolated and prepared as follows. First, the SMS samples were preincubated for 40 minutes in an organ bath holding a standard Krebs-Henseleit physiological salt solution containing calcium chloride (CaCl2) at concentration of 2.5 mM. Next, each SMS was washed with a calcium-free solution of Krebs-Henseleit and incubated in a calcium-free Krebs-Henseleit solution for 40 minutes. Contractile activity was pre-induced in each SMS by first perfusing the organ bath containing the sample for 15 minutes with a Krebs-Henseleit solution containing 30 mM KCl and then perfusing the bath for an additional 15 minutes with a Krebs-Henseleit solution containing 20 mM CaCl2. Finally, each SMS sample was washed with a calcium-free Krebs-Henseleit solution for 40 minutes. In these experiments, measurements of the contractile response of the SMS following the addition of a Krebs-Henseleit solution containing 20 mM calcium served as the control (baseline). Changes in contraction amplitudes were recorded by using the method set forth in Step 1 of Example 2, above.
After washing the SMS as outlined in Step 1, the organ bath with the SMS sample was perfused for 15 minutes with the solution of a test or reference substance. In this instance, GE and VT served as the test substances, and each dipeptide was tested at a concentration of 10^-6 g/ml.
Following perfusion with the test or reference substance, the SMS sample/organ bath was perfused for 10 minutes with a Krebs-Henseleit solution containing 30 mM KCl and then perfused for an additional 10 minutes with a Krebs-Henseleit solution containing 20 mM CaCl2. Next, each SMS sample was washed with a calcium-free Krebs-Henseleit solution for 40 minutes. The effect of the test or reference substance on the SMS sample was evaluated by measuring the contractile response (i.e., the change in contraction amplitude) of the sample following the addition of the Krebs-Henseleit solution containing 20 mM CaCl2.
Next, the organ bath was perfused for 10 minutes with a Krebs-Henseleit solution containing 30 mM KCl and then for additional 10 minutes with a Krebs-Henseleit solution containing 20 mM CaCl2. The effect of the respective test or reference substance was evaluated a second time by measuring the change in the contraction amplitude of the SMS following the addition of the Krebs-Henseleit solution containing 20 mM CaCl2. […]

In a further data set the test system is mice. The experiment in a line: Chloroform-induced arrhythmia. It counts as in vivo. Particulars: 240 mg/kg i.p. 15 min before chloroform.
The test system of another data set is ischemic myocardium. In words: Inotropic function and arrhythmias of ischemic isolated rat heart during reperfusion. Particulars: 0.06-6.0 mg/l. From the text: Rat hearts were surgically isolated from white random-bred rats weighing approximately 250 g. The isolated hearts were perfused with a standard oxygenated (95% O2 and 5% CO2) Krebs-Henseleit solution in a retrograde manner (i.e., according to Langendorff and using a constant perfusate pressure of 80 cm of water). The hearts maintained a steady spontaneous contraction rate. A latex balloon catheter connected to a pressure transducer (EMT-746, Siemens-Elema, Sweden) was inserted into the left ventricle of each heart to measure the inotropic function of the heart (as described in Example 3, above). The left ventricle pressure variation curve was recorded using a polygraph.
Stage I ("adaptation regimen") consisted of a 30-minute adaptation of the respective rat hearts to the perfusion regimen. The baseline parameters for the inotropic function of each heart were recorded to establish the preischemic values for the following measured parameters: (i) the systolic pressure in the left ventricle (Psyst. mm Hg); (ii) the diastolic pressure in the left ventricle (Pdiast. mm Hg); (iii) the evolving pressure (Pev. =Psyst. -Pdist. mm Hg); (iv) the maximal rate of increase of left ventricle pressure (+dp/dtmax mm Hg/sec); and (v) the maximal rate of decrease of left ventricle pressure (-dp/dtmax mm Hg/sec). In addition, the heart rate (HR) of each heart was determined from the recordings made of the variations in the left ventricle pressure over time. In Stage II ("ischemic simulation"), ischemia was induced in each heart by shutting off the supply of the perfusion solution to the heart. Approximately 30 minutes later, Stage III ("reperfusion regimen") was initiated by restarting the reperfusion and including in the perfusate solution a test or control substance at one of the following respective concentrations: a perfusate solution of a test substance comprised 0.06, 0.6, or 6.0 mg/l GE, or 0.06, 0.6, or 6.0 mg/l VT, respectively; a perfusate solution of the positive control substance comprised 14 mg/l inosine. Inosine is a nucleoside preparation that produces a favorable inotropic effect on both normal and ischemic myocardium while inducing no rhythm disturbances or acceleration of ischemic contracture development. Woollard et al., Cardiovasc. Res. 15: 659-67 (1981). Inosine was obtained from Sigma Chemical Company, USA (Cat. Code I-4125; lot number 81H0227). The negative control substance comprised reperfusion using a standard oxygenated Krebs-Henseleit solution.
For each heart, the inotropic function of the myocardium was evaluated by measuring the parameters (i) through (v), discussed above, and the heart rate. These six parameters were recorded continuously throughout the study (i.e., beginning with Stage I and continuing through Stage III). The recordings were analyzed at the following times: (a) immediately before beginning Stage II (that is, after the 30-minute Stage I adaptation period, but before stopping perfusion); and (b) at 1, 5, 10, 20, and 30 minutes into the Stage III reperfusion.
The frequency and duration of rhythm disturbances in the 30-minute Stage III reperfusion period were determined by measuring the following parameters: (i) the number of ventricular extrasystoles; (ii) the overall duration of ventricular tachycardias (in seconds); and (iii) the overall duration of ventricular fibrillation (in seconds). Each dose of the test substance was tested on nine isolated hearts.

A further data set deals with rats. In words: ECG parameters of cardiac function in Nembutal-anesthetized rats.
The subject of data set [1] is Smooth Muscle Cells of Rat Portal Vein. In words: Spontaneous contractile activity of rat portal vein smooth muscle specimens. Particulars: 5×10^-7 g/ml. It counts as cell-based. As to the method: Rat portal vein SMS samples were surgically isolated from random bred rats weighing 200-250 g. The suitability of each isolated rat portal vein SMS was established by measuring the spontaneous contraction response and its contractile response of the specimen to potassium chloride (KCl) as follows. Each isolated SMS was placed into an organ bath with standard Krebs-Henseleit (KH) solution at 35° C. Then, 0.5 ml of physiological saline were added into the organ bath. In this procedure, one end of the smooth muscle strip was fixed, while the other end of the muscle strip was connected with a probe which transmitted contraction-induced signals to an analog-to-digital converter. The spontaneous contraction curve for each SMS was recorded by taking repeated measurements over a 1-minute period. Next, 0.5 ml of a 600 mM solution of KCl in physiological saline was added to the SMS sample/organ bath to achieve a final concentration of 60 mM KCl. KCl induces contraction of rat portal vein tissue at a fmal tissue concentration of about 60 mM.
The KCl-induced contraction curve for each specimen sample was then recorded over the next 5-minute period. […] During this stabilization period, the spontaneous contraction curve for each SMS was verified by monitoring the data obtained from analog-to-digital converter.
To each SMS in the organ bath prepared according to Steps 2 and 3 above, 0.5 ml of physiological saline was added, and the spontaneous contraction curve was recorded for 1 minute. Each spontaneous contraction curve served as baseline (control) curve for comparison with the respective spontaneous contraction of each SMS in the presence of a test substance or reference substance.
Spontaneous contraction curve values for each SMS were recorded by making repetitive measurements of the spontaneous contractile activity of each sample at 2, 5, 10, and 15 minutes after the addition of the test or reference substance to each SMS/organ bath. Next, 0.5 ml of a solution of 600 mM solution of KCl in […] in the organ bath until a final concentration of 60 mM KCl was achieved. The contractile activity of each SMS was then measured for 5 minutes.

Procedure for mice: Each mouse in the study was treated by intraperitoneal injection of a dose of a test or control substance 15 minutes prior to the administration of a deep chloroform anesthesia. A test or control substance was then administered to each mouse. […] Novocainamide, a known antiarrhythmic agent, served as the positive control substance and was administered to mice in the positive control group at a dose of 240 mg/kg. Physiological saline served as the negative control substance and was administered to the mice in the negative control group.
Chloroform anesthesia was administered to each mouse by placing the mouse in an airtight glass container with cotton wool soaked in 20 ml of absolute chloroform. At the moment of respiratory arrest, the mouse was removed from the jar and electrocardiogram (ECG) monitoring (standard lead II) was initiated and continued for 30 seconds. […] An antiarrhythmic activity for a particular dose of a test substance is pharmaceutically acceptable if 30% of the animals in a test group show the latter test results (i.e., namely, no sign of ventricular paroxysmal rhythm disturbances and heart rate below 100 beats per 30 seconds within 30 seconds following the respiratory arrest).
Procedure for rats: White random-bred male rats weighing about 200 g were anesthetized using Nembutal. A basal ECG was taken as soon as possible following anesthetization to establish basal measurements for the principal parameters of cardiac functions. Rats showing any deviation from normal ECG parameters were excluded from the study.
Each dose of each test substance was evaluated on a separate experimental group consisting of 10 rats. ECG traces (no less than 4 complexes each) were taken at 1, 3, 5, and 10 minutes after the injection of the test substance. Physiological saline served as the negative control substance. To each animal in the negative control group, 2 ml of physiological saline was injected intravenously.
Cardiac function was evaluated by monitoring the following ECG parameters:
(iv) the duration of the QT interval (which defines the time from the beginning of the QRS complex to the end of the T wave and reflects the duration of ventricular depolarization and repolarization). The normal value for this parameter for Nembutal-anesthetized rats is 50 to 106 ms using lead II ECG.

Take `CN1[C@@H]2CC[C@H]1C[C@@H](OC(=O)C(CO)c1ccccc1)C2` (stereo partly shown) [Atropine, atropine]: the “Contraction Amplitude, calcium-induced (% of control level)” value was determined as 39.57% with Intestinal Smooth Muscle (Application I, 10^-7 g/ml) and 25.08% in the data set on Intestinal Smooth Muscle (Application II, 10^-6 g/ml).

Take `CCN(CC)CCNC(=O)c1ccc(N)cc1` [Novocainamide, reference compound]: in the data set on mice, the “Antiarrhythmic Effect (no. animals) %” value came out at 77.8%, the “Antiarrhythmic Effect (no. animals) abs” value amounted to 7 and the Result entry is listed as “Antiarrhythmic effect”.

Regarding `COc1ccc([C@@H]2Sc3ccccc3N(CCN(C)C)C(=O)[C@@H]2OC(C)=O)cc1` [Diltiazem, diltiazem], the “Contraction Amplitude, calcium-induced (% of control level)” value with Intestinal Smooth Muscle (Application I, 10^-9 g/ml) is on record as 39.02%; in the data set with Intestinal Smooth Muscle (Application II, 10^-8 g/ml) it was 12.95%.

Turning to `CC(C)[C@H](N)C(=O)N[C@H](C(=O)O)[C@@H](C)O` [VT, L-Valine-L-Threonine] (H-Val-Thr-OH), the “arrhythmogenic effect during reperfusion” value in the data set on ischemic myocardium is listed as “Neither GE nor VT was found to have an arrhythmogenic effect”. For the same compound, the “Duration of QT Interval (% of Initial Mean Value)” value is reported as 101.80% in the data set with rats (0.001 mg/kg i.v., 1 min); 105.73% in the data set on rats (0.001 mg/kg i.v., 3 min); 102.20% in the data set with rats (0.001 mg/kg i.v., 5 min); 101.24% in the data set with rats (0.001 mg/kg i.v., 10 min); 99.86% in the data set on rats (0.01 mg/kg i.v., 1 min); 101.48% in the data set with rats (0.01 mg/kg i.v., 3 min). Further, the “Duration of QT Interval (% of Initial Mean Value)” value in the data set with rats (0.01 mg/kg i.v., 5 min) worked out at 101.09%; in the data set with rats (0.01 mg/kg i.v., 10 min) it was 97.32%; with rats (0.1 mg/kg i.v., 1 min) it was 102.97%; in the data set with rats (0.1 mg/kg i.v., 3 min), 98.39%; in the data set with rats (0.1 mg/kg i.v., 5 min), 95.65%; in the data set on rats (0.1 mg/kg i.v., 10 min), 90.67%. Further, the “Duration of QT Interval (% of Initial Mean Value)” value in the data set with rats (1.0 mg/kg i.v., 1 min) is 105.57%; in the data set with rats (1.0 mg/kg i.v., 3 min) it was 105.58%; in the data set with rats (1.0 mg/kg i.v., 5 min), 102.18%; in the data set on rats (1.0 mg/kg i.v., 10 min) it was 101.18%; with rats (10.0 mg/kg i.v., 1 min) it was 94.89% and 102.97%; in the data set with rats (10.0 mg/kg i.v., 3 min), 95.91% and 105.82%. Besides, the “Duration of QT Interval (% of Initial Mean Value)” value was 96.52% and 103.51% in the data set with rats (10.0 mg/kg i.v., 5 min); 88.88% and 104.78% in the data set on rats (10.0 mg/kg i.v., 10 min); 100.00% and 96.62% in the data set on rats (100.0 mg/kg i.v., 1 min); 100.82% and 100.45% with rats (100.0 mg/kg i.v., 3 min); 97.96% and 99.74% in the data set with rats (100.0 mg/kg i.v., 5 min); 94.74% and 102.25% in the data set with rats (100.0 mg/kg i.v., 10 min).

As for `COc1ccc(CCN(C)CCCC(C#N)(c2ccc(OC)c(OC)c2)C(C)C)cc1OC` (stereo not shown) [Verapamil, reference compound], the “Amplitude of spontaneous contraction (% of Control)” value in data set [1] (2 min after application) turned out to be 95.82%; in data set [1] (5 min after application), 78.58%; in data set [1] (10 min after application), 60.79%; in data set [1] (15 min after application) it was 37.92%. Moreover, the “Area Under Curve of spontaneous contraction (% of Control)” value came out at 82.41% in data set [1] (2 min after application), 62.11% in data set [1] (5 min after application), 49.83% in data set [1] (10 min after application) and 35.13% in data set [1] (15 min after application).

(Values after US5972894A, “Peptides having potassium channel opener activity” (Cytran, Inc., priority 1997, dated 1999).)
